Results on 20 compounds are retold here after PubChem BioAssay AID330 (DTP/NCI, 2004).

The assay has as its system P388 leukemia ip, CD2F1 mice, survival T/C. In words: NCI In Vivo Anticancer Drug Screen. Data for tumor model P388 Leukemia (intraperitoneal) in CD2F1 (CDF1) mice. To be noted: endpoint: median survival time, higher = longer survival. The essentials:
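Mice carrying the transplanted tumor received test compound or vehicle. Survival was recorded in each group, and the value is the treated-group measurement divided by that of the vehicle-treated control group.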

[1] abbreviates: dose: 50.0 mg/kg/injection, schedule: Q01DX005 (ip), vehicle: Klucel (hydroxypropylcellulose) (HPC).
The mark [2] stands for this setting: dose: 100.0 mg/kg/injection, schedule: Q01DX005 (ip), vehicle: Klucel (hydroxypropylcellulose) (HPC).
Setting [3] is: dose: 200.0 mg/kg/injection, schedule: Q01DX005 (ip), vehicle: Klucel (hydroxypropylcellulose) (HPC).
Setting [4] is: dose: 50.0 mg/kg/injection, schedule: Q01DX005 (ip), vehicle: saline.
The mark [5] stands for this setting: dose: 100.0 mg/kg/injection, schedule: Q01DX005 (ip), vehicle: saline.
The mark [6] stands for this setting: dose: 60.0 mg/kg/injection, schedule: Q01DX005 (ip), vehicle: saline with Tween-80.
Where [7] appears, read: dose: 240.0 mg/kg/injection, schedule: Q01DX005 (ip), vehicle: saline with Tween-80.
The mark [8] stands for this setting: dose: 50.0 mg/kg/injection, schedule: Q01DX005 (ip), vehicle: saline with Tween-80.
Where [9] appears, read: dose: 100.0 mg/kg/injection, schedule: Q01DX005 (ip), vehicle: saline with Tween-80.
[10] abbreviates: dose: 200.0 mg/kg/injection, schedule: Q01DX005 (ip), vehicle: saline with Tween-80.

Where “and” joins values, the source holds several entries; their conditions need not be identical. Equal entries are not always repeated. Inconclusive results and toxic doses are left out.

As for `Cc1c(C)c2c(N)c3ccccc3nc2c2ccccc12`, the T/C was 101 % of control (dose: 12.5 mg/kg/injection, schedule: Q01DX001 (ip), vehicle: saline with Tween-80); 100 % of control (dose: 25.0 mg/kg/injection, schedule: Q01DX001 (ip), vehicle: saline with Tween-80); 115 % of control (dose: 50.0 mg/kg/injection, schedule: Q01DX001 (ip), vehicle: saline with Tween-80); 111 % of control (dose: 100.0 mg/kg/injection, schedule: Q01DX001 (ip), vehicle: saline with Tween-80).

Consider `C/C(=N\N=C(N)N)c1ccc(-c2ccccc2)cc1`, for which the T/C (dose: 25.0 mg/kg/injection, schedule: Q04DX002 (ip), vehicle: saline with Tween-80) is 111 % of control and the T/C (dose: 50.0 mg/kg/injection, schedule: Q04DX002 (ip), vehicle: saline with Tween-80) is 109 % of control.

As for `COc1c2c(c(C)c3ccc4ccccc4c13)CCN=C2`, the T/C by setting is: under setting [1], 103 % of control; under setting [2], 102 % of control; under setting [3], 113 % of control.

Regarding `CCCCCCCCCCCC(=O)NC1CC(O[C@H]2C[C@](O)(C(C)=O)Cc3c(O)c4c(c(O)c32)C(=O)c2c(OC)cccc2C4=O)OC(C)C1O` (some centres undefined), the T/C is 119 % of control (dose: 0.75 mg/kg/injection, schedule: Q01DX009 (ip), vehicle: other); 91 % of control (dose: 2.0 mg/kg/injection, schedule: Q04DX003 (ip), vehicle: other); 107 % of control (dose: 4.0 mg/kg/injection, schedule: Q04DX003 (ip), vehicle: other); 150 % of control (dose: 6.0 mg/kg/injection, schedule: Q01DX009 (ip), vehicle: other); 98 % of control (dose: 8.0 mg/kg/injection, schedule: Q04DX003 (ip), vehicle: other); 158 % of control (dose: 12.0 mg/kg/injection, schedule: Q01DX009 (ip), vehicle: other). The T/C was 102 % of control and 111 % of control (dose: 16.0 mg/kg/injection, schedule: Q04DX003 (ip), vehicle: other); 114 % of control and 120 % of control (dose: 32.0 mg/kg/injection, schedule: Q04DX003 (ip), vehicle: other); 120 % of control (dose: 64.0 mg/kg/injection, schedule: Q04DX003 (ip), vehicle: other); 123 % of control (dose: 128.0 mg/kg/injection, schedule: Q04DX003 (ip), vehicle: other); 100 % of control (dose: 256.0 mg/kg/injection, schedule: Q04DX003 (ip), vehicle: other).

As for `Cn1c(=O)oc2ccc(S(=O)(=O)Nc3ccc(Cl)cc3[N+](=O)[O-])cc21`, the T/C was 94 % of control (dose: 50.0 mg/kg/injection, schedule: Q01DX005 (ip), vehicle: saline + Tween-80 + alcohol); 101 % of control (dose: 100.0 mg/kg/injection, schedule: Q01DX005 (ip), vehicle: saline + Tween-80 + alcohol); 102 % of control (dose: 200.0 mg/kg/injection, schedule: Q01DX005 (ip), vehicle: saline + Tween-80 + alcohol).

Take `O=c1cc(F)cc[nH]1`: the T/C under setting [4] was 103 % of control; the T/C under setting [5] was 104 % of control; the T/C (dose: 200.0 mg/kg/injection, schedule: Q01DX005 (ip), vehicle: saline) was 109 % of control.

As for `c1cc[c]([Sn]2([c]3ccccc3)[O]CCNCC[O]2)cc1`, the T/C runs as follows: (dose: 25.0 mg/kg/injection, schedule: Q01DX005 (ip), vehicle: saline) 150 % of control; under setting [4], 153 % of control; under setting [5], 155 % of control and 160 % of control.

On to `O=C1Sc2ccccc2C(=O)N2CCCC12` (centres undefined), for which the T/C reads like this: under setting [6], 97 % of control; (dose: 120.0 mg/kg/injection, schedule: Q01DX005 (ip), vehicle: saline with Tween-80) 99 % of control; under setting [7], 100 % of control.

For `O=C(NC(CCS(=O)(=O)F)C(=O)OCc1ccccc1)OCc1ccccc1` (centres undefined), the T/C (dose: 12.5 mg/kg/injection, schedule: Q01DX009 (ip), vehicle: other) was 102 % of control; the T/C (dose: 25.0 mg/kg/injection, schedule: Q01DX009 (ip), vehicle: other) was 97 % of control; the T/C (dose: 50.0 mg/kg/injection, schedule: Q01DX009 (ip), vehicle: other) is 100 % of control; the T/C (dose: 100.0 mg/kg/injection, schedule: Q01DX009 (ip), vehicle: other) was 102 % of control; the T/C (dose: 200.0 mg/kg/injection, schedule: Q01DX009 (ip), vehicle: other) was 105 % of control.

With `CCCSc1nn2cc(NC(=O)OC)nc2s1`, the T/C by setting is: under setting [8], 97 % of control; under setting [9], 100 % of control; under setting [10], 103 % of control.

As for `COc1ccc2nc3cc(Cl)ccc3c(NCCC3CCCN4CCCCC34)c2c1` (centres undefined), the T/C is 109 % of control (dose: 12.5 mg/kg/injection, schedule: Q01DX005 (ip), vehicle: distilled water + Tween-80) and 114 % of control (dose: 25.0 mg/kg/injection, schedule: Q01DX005 (ip), vehicle: distilled water + Tween-80).

For `CNCCNc1ncc([N+](=O)[O-])s1`, the T/C (dose: 25.0 mg/kg/injection, schedule: Q01DX001 (ip), vehicle: saline) is 115 % of control and 118 % of control; the T/C (dose: 50.0 mg/kg/injection, schedule: Q01DX001 (ip), vehicle: saline) is 122 % of control and 124 % of control.

Take `N/C(=C\c1nc2ccccc2nc1-c1ccccc1)c1ccccc1Cl`: the T/C is 100 % of control (dose: 60.0 mg/kg/injection, schedule: Q01DX005 (ip), vehicle: Klucel (hydroxypropylcellulose) (HPC)) and 91 % of control (dose: 120.0 mg/kg/injection, schedule: Q01DX005 (ip), vehicle: Klucel (hydroxypropylcellulose) (HPC)).

Regarding `CCCCCCCCCCCCCCOCCS(=O)(=O)O`, the T/C by setting is: under setting [6], 86 % of control; under setting [7], 100 % of control.

`CCCCCCCNc1nn[nH]n1`: the T/C under setting [1] was 100 % of control, the T/C under setting [2] was 104 % of control and the T/C under setting [3] was 98 % of control.

Regarding `Cc1ccccc1CN1CC2=C(CCN(Cc3ccccc3)C2=O)N2CCN=C12`, the T/C reads like this: under setting [8], 96 % of control; under setting [9], 96 % of control; under setting [10], 100 % of control.

With `[Se]c1nc(N2CCOCC2)ncc1-c1ccccc1`, the T/C reads like this: (dose: 6.25 mg/kg/injection, schedule: Q01DX009 (ip), vehicle: saline with Tween-80) 100 % of control; (dose: 12.5 mg/kg/injection, schedule: Q01DX009 (ip), vehicle: saline with Tween-80) 95 % of control; (dose: 25.0 mg/kg/injection, schedule: Q01DX009 (ip), vehicle: saline with Tween-80) 95 % of control; (dose: 200.0 mg/kg/injection, schedule: Q01DX009 (ip), vehicle: saline with Tween-80) 92 % of control.

For `O=C1c2ccccc2CCC1Cl` (centres undefined), the T/C is 100 % of control (dose: 1.56 mg/kg/injection, schedule: Q01DX009 (ip), vehicle: DMSO); 103 % of control (dose: 3.12 mg/kg/injection, schedule: Q01DX009 (ip), vehicle: DMSO); 94 % of control and 97 % of control (dose: 6.25 mg/kg/injection, schedule: Q01DX009 (ip), vehicle: DMSO); 102 % of control (dose: 12.5 mg/kg/injection, schedule: Q01DX009 (ip), vehicle: DMSO); 94 % of control (dose: 25.0 mg/kg/injection, schedule: Q01DX009 (ip), vehicle: DMSO).

In the case of `Oc1ccccc1-c1cc(-c2ccccc2)nc(NCCCCNc2nc(-c3ccccc3)cc(-c3ccccc3O)n2)n1`, the T/C (dose: 12.5 mg/kg/injection, schedule: Q01DX005 (ip), vehicle: Klucel (hydroxypropylcellulose) (HPC)) is 97 % of control; the T/C (dose: 25.0 mg/kg/injection, schedule: Q01DX005 (ip), vehicle: Klucel (hydroxypropylcellulose) (HPC)) is 97 % of control; the T/C under setting [1] was 94 % of control; the T/C under setting [2] was 88 % of control.

On to `N#C[S-].N#C[S-].N#C[S-].N#C[S-].[Cr+6].[NH2-].[NH2-]`, for which the T/C is 103 % of control (dose: 25.0 mg/kg/injection, schedule: Q04DX003 (ip), vehicle: saline) and 95 % of control (dose: 50.0 mg/kg/injection, schedule: Q04DX003 (ip), vehicle: saline).
